Legend:
[1] = tested on: HOP-62 (NSC lung cancer); experiment: NCI-60 screen (SRB, 48 h); conditions: Homo sapiens
[2] = tested on: NCI-H226 (NSC lung cancer); experiment: NCI-60 screen (SRB, 48 h); conditions: Homo sapiens
[3] = tested on: MDA-MB-468 (Breast cancer); experiment: cells; conditions: Homo sapiens
[4] = tested on: Leukemia subpanel; experiment: cells; conditions: Homo sapiens
[5] = tested on: OVCAR-5 (Ovarian cancer); experiment: NCI-60 screen (SRB, 48 h); conditions: Homo sapiens
[6] = tested on: SK-MEL-5 (Melanoma); experiment: NCI-60 screen (SRB, 48 h); conditions: Homo sapiens
[7] = tested on: CCRF-CEM (Leukemia); experiment: NCI-60 screen (SRB, 48 h); conditions: Homo sapiens
[8] = tested on: Renal Cancer subpanel; experiment: NCI-60 screen, subpanel; conditions: Homo sapiens
[9] = tested on: RPMI-8226 (Leukemia); experiment: NCI-60 screen (SRB, 48 h); conditions: Homo sapiens
[10] = tested on: EKVX (NSC lung cancer); experiment: NCI-60 screen (SRB, 48 h); conditions: Homo sapiens
[11] = tested on: SNB-75 (CNS cancer); experiment: NCI-60 screen (SRB, 48 h); conditions: Homo sapiens
[12] = tested on: OVCAR-3 (Ovarian cancer); experiment: cells; conditions: Homo sapiens
[13] = tested on: MDA-MB-435 (Melanoma); experiment: NCI-60 screen (SRB, 48 h); assay type: cell-based; conditions: Homo sapiens
[14] = tested on: COLO 205 (Colon cancer); experiment: NCI-60 screen (SRB, 48 h)
[15] = tested on: MDA-MB-31/ATCC (Breast cancer); experiment: NCI-60 screen (SRB, 48 h); conditions: Homo sapiens
[16] = tested on: MOLT-4 (Leukemia); experiment: NCI-60 screen (SRB, 48 h); conditions: Homo sapiens
[17] = tested on: NCI-H460 (NSC lung cancer); experiment: NCI-60 screen (SRB, 48 h); conditions: Homo sapiens
[18] = tested on: SNB-19 (CNS cancer); experiment: NCI-60 screen (SRB, 48 h); conditions: Homo sapiens
[19] = tested on: MCF7 (Breast cancer); experiment: NCI-60 screen (SRB, 48 h); conditions: Homo sapiens
[20] = tested on: SK-OV-3 (Ovarian cancer); experiment: NCI-60 screen (SRB, 48 h); conditions: Homo sapiens
[21] = tested on: SK-MEL-28 (Melanoma); experiment: NCI-60 screen (SRB, 48 h)
[22] = tested on: Prostate cancer subpanel; experiment: NCI-60 screen, subpanel; conditions: Homo sapiens
[23] = tested on: SK-MEL-2 (Melanoma); experiment: NCI-60 screen (SRB, 48 h); conditions: Homo sapiens
[24] = tested on: Breast cancer subpanel; experiment: NCI-60 screen, subpanel; conditions: Homo sapiens
[25] = tested on: Melanoma subpanel; experiment: NCI-60 screen, subpanel; conditions: Homo sapiens
[26] = tested on: 786-0 (Renal cancer); experiment: NCI-60 screen (SRB, 48 h); conditions: Homo sapiens
[27] = tested on: U251 (CNS cancer); experiment: NCI-60 screen (SRB, 48 h); conditions: Homo sapiens
[28] = tested on: HCC-2998 (Colon cancer); experiment: NCI-60 screen (SRB, 48 h); conditions: Homo sapiens
[29] = tested on: MALME-3M (Melanoma); experiment: NCI-60 screen (SRB, 48 h); conditions: Homo sapiens

Structure (SMILES): CC1(C)CC[C@]2(CO)CC[C@]3(C)C(=CC[C@@H]4[C@@]5(C)CCCNC(C)(C)[C@@H]5CC[C@]43C)[C@@H]2C1 [Compound 3, azepanoerythrodiol]
- GI50 ([1]; HOP-62): 5.89 µM
- IC (TGI) ([1]; HOP-62, 48 h, read-out: TGI): 20.4 µM
- CC50 ([1]; HOP-62, read-out: LC50): 58.9 µM
- GI50 ([2]; NCI-H226): 1.13 µM
- IC (TGI) ([2]; NCI-H226, 48 h, read-out: TGI): 28.5 µM
- CC50 ([2]; NCI-H226, read-out: LC50): 71.8 µM
- GI50 ([3]; MDA-MB-468): 1.79 µM
- IC (TGI) ([3]; MDA-MB-468, 48 h, read-out: TGI): 3.74 µM
- CC50 ([3]; MDA-MB-468, read-out: LC50): 7.81 µM
- IC (TGI) ([4]; 48 h, read-out: TGI MG_MID): 54.8 µM
- GI50 ([4]; read-out: GI50 MG_MID): 2.03 µM
- CC50 ([4]; read-out: LC50 MG_MID): > 100 µM
- GI50 ([5]; OVCAR-5): 11.9 µM
- IC (TGI) ([5]; OVCAR-5, 48 h, read-out: TGI): 24.6 µM
- CC50 ([5]; OVCAR-5, read-out: LC50): 51 µM
- GI50 ([6]; SK-MEL-5): 1.68 µM
- IC (TGI) ([6]; SK-MEL-5, 48 h, read-out: TGI): 3.14 µM
- CC50 ([6]; SK-MEL-5, read-out: LC50): 5.86 µM
- GI50 [7]: 2.41 µM
- IC (TGI) ([7]; 48 h, read-out: TGI): 8.96 µM
- CC50 ([7]; read-out: LC50): > 100 µM
- IC (TGI) ([8]; 48 h, read-out: TGI MG_MID): 17.4 µM
- GI50 ([8]; read-out: GI50 MG_MID): 5.94 µM
- CC50 ([8]; read-out: LC50 MG_MID): 49.7 µM
- GI50 ([9]; RPMI-8226): 2.71 µM
- IC (TGI) ([9]; RPMI-8226, 48 h, read-out: TGI): 10.1 µM
- CC50 ([9]; RPMI-8226, read-out: LC50): > 100 µM
- GI50 [10]: 4.04 µM
- IC (TGI) ([10]; 48 h, read-out: TGI): 20.1 µM
- CC50 ([10]; read-out: LC50): > 100 µM
- GI50 ([11]; SNB-75): 9.84 µM
- IC (TGI) ([11]; SNB-75, 48 h, read-out: TGI): 2.17 µM
- CC50 ([11]; SNB-75, read-out: LC50): 47.1 µM
- GI50 ([12]; OVCAR-3): 1.96 µM
- IC (TGI) ([12]; OVCAR-3, 48 h, read-out: TGI): 3.84 µM
- CC50 ([12]; OVCAR-3, read-out: LC50): 7.52 µM
- GI50 ([13]; MDA-MB-435): 1.71 µM
- IC (TGI) ([13]; MDA-MB-435, 48 h, read-out: TGI): 3.36 µM
- CC50 ([13]; MDA-MB-435, read-out: LC50 (the source's name)): 6.59 µM
- Growth % of the Most Sensitive Cell Lines ([14]; COLO 205, 1 dose 10 µM): −88.44%
- GI50 ([14]; Homo sapiens, COLO 205): 1.83 µM
- IC (TGI) ([14]; Homo sapiens, COLO 205, 48 h, read-out: TGI): 3.25 µM
- CC50 ([14]; Homo sapiens, COLO 205, read-out: LC50): 5.77 µM
- GI50 [15]: 3.5 µM
- IC (TGI) ([15]; 48 h, read-out: TGI): 13 µM
- CC50 ([15]; read-out: LC50): 45.6 µM
- GI50 ([16]; MOLT-4): 2.5 µM
- CC50 ([16]; MOLT-4, read-out: LC50): > 100 µM
- GI50 ([17]; NCI-H460): 1.92 µM
- IC (TGI) ([17]; NCI-H460, 48 h, read-out: TGI): 3.8 µM
- CC50 ([17]; NCI-H460, read-out: LC50): 7.56 µM
- GI50 ([18]; SNB-19): 11.7 µM
- IC (TGI) ([18]; SNB-19, 48 h, read-out: TGI): 2.61 µM
- CC50 ([18]; SNB-19, read-out: LC50): 58.1 µM
- GI50 ([19]; MCF7): 2.16 µM
- IC (TGI) ([19]; MCF7, 48 h, read-out: TGI): 5.54 µM
- CC50 ([19]; MCF7, read-out: LC50): 22.7 µM
- GI50 ([20]; SK-OV-3): 14.1 µM
- IC (TGI) ([20]; SK-OV-3, 48 h, read-out: TGI): 28.9 µM
- CC50 ([20]; SK-OV-3, read-out: LC50): 59.2 µM
- GI50 ([21]; Homo sapiens, SK-MEL-28): 1.7 µM
- IC (TGI) ([21]; Homo sapiens, SK-MEL-28, 48 h, read-out: TGI): 3.14 µM
- CC50 ([21]; Homo sapiens, SK-MEL-28, read-out: LC50): 5.78 µM
- Growth % of the Most Sensitive Cell Lines ([21]; SK-MEL-28, 1 dose 10 µM): −81.53%
- IC (TGI) ([22]; 48 h, read-out: TGI MG_MID): 4.02 µM
- GI50 ([22]; read-out: GI50 MG_MID): 1.89 µM
- CC50 ([22]; read-out: LC50 MG_MID): 8.54 µM
- GI50 ([23]; SK-MEL-2): 3.25 µM
- IC (TGI) ([23]; SK-MEL-2, 48 h, read-out: TGI): 8.17 µM
- CC50 ([23]; SK-MEL-2, read-out: LC50): 36.7 µM
- IC (TGI) ([24]; 48 h, read-out: TGI MG_MID): 14.6 µM
- GI50 ([24]; read-out: GI50 MG_MID): 3.12 µM
- CC50 ([24]; read-out: LC50 MG_MID): 43.6 µM
- IC (TGI) ([25]; 48 h, read-out: TGI MG_MID): 4.31 µM
- GI50 ([25]; read-out: GI50 MG_MID): 2.05 µM
- CC50 ([25]; read-out: LC50 MG_MID): 12.2 µM
- GI50 ([26]; 786-0): 2.25 µM
- IC (TGI) ([26]; 786-0, 48 h, read-out: TGI): 4.84 µM
- CC50 ([26]; 786-0, read-out: LC50): 12.7 µM
- GI50 ([27]; U-251): 1.94 µM
- IC (TGI) ([27]; U-251, 48 h, read-out: TGI): 4.18 µM
- CC50 ([27]; U-251, read-out: LC50): 9 µM
- GI50 ([28]; HCC 2998): 1.89 µM
- IC (TGI) ([28]; HCC 2998, 48 h, read-out: TGI): 3.81 µM
- CC50 ([28]; HCC 2998, read-out: LC50): 7.69 µM
- GI50 [29]: 2.02 µM
- IC (TGI) ([29]; 48 h, read-out: TGI): 3.56 µM
- CC50 ([29]; read-out: LC50): 6.27 µM

Source: article PMC7914897, “Cytotoxic Potential of a-Azepano- and 3-Amino-3,4-SeCo-Triterpenoids” (International Journal of Molecular Sciences, 2021)
